Reference: the NIST ThermoML archive (doi:10.1021/acs.jced.6b00121)

Assay: xn = mol fraction of the nth substance listed
Settings: 100 kPa, Liquid; for viscosity: Falling or rolling sphere viscometry; for mass density: Vibrating tube method

CCCCCCCCCCC [undecane] + CCCCCO
Settings | mass density [kg/m3] | viscosity [mPa·s]
283.15 K, x1 = 0.0999 | 808.13 | 4.269
283.15 K, x1 = 0.2 | 796.68 | 3.406
283.15 K, x1 = 0.3026 | 786.76 | 2.731
283.15 K, x1 = 0.4001 | 778.65 | 2.21
283.15 K, x1 = 0.5022 | 771.41 | 1.884
283.15 K, x1 = 0.5976 | 765.49 | 1.694
283.15 K, x1 = 0.6984 | 760.02 | 1.551
283.15 K, x1 = 0.801 | 755.27 | 1.452
283.15 K, x1 = 0.8822 | 751.87 | 1.413
283.15 K, x1 = 1 | 747.78 | 1.371
288.15 K, x1 = 0.0999 | 804.49 | 3.679
288.15 K, x1 = 0.2 | 792.98 | 2.958
288.15 K, x1 = 0.3026 | 783.04 | 2.39
288.15 K, x1 = 0.4001 | 774.92 | 1.945
288.15 K, x1 = 0.5022 | 767.66 | 1.689
288.15 K, x1 = 0.5976 | 761.74 | 1.535
288.15 K, x1 = 0.6984 | 756.3 | 1.419
288.15 K, x1 = 0.801 | 751.55 | 1.335
288.15 K, x1 = 0.8822 | 748.15 | 1.287
288.15 K, x1 = 1 | 744.06 | 1.249
293.15 K, x1 = 0.0999 | 800.81 | 3.187
293.15 K, x1 = 0.2 | 789.27 | 2.58
293.15 K, x1 = 0.3026 | 779.3 | 2.103
293.15 K, x1 = 0.4001 | 771.17 | 1.743
293.15 K, x1 = 0.5022 | 763.91 | 1.529
293.15 K, x1 = 0.5976 | 757.99 | 1.404
293.15 K, x1 = 0.6984 | 752.55 | 1.308
293.15 K, x1 = 0.801 | 747.81 | 1.236
293.15 K, x1 = 0.8822 | 744.41 | 1.176
293.15 K, x1 = 1 | 740.35 | 1.145
298.15 K, x1 = 0.0999 | 797.12 | 2.777
298.15 K, x1 = 0.2 | 785.54 | 2.26
298.15 K, x1 = 0.3026 | 775.54 | 1.862
298.15 K, x1 = 0.4001 | 767.4 | 1.571
298.15 K, x1 = 0.5022 | 760.13 | 1.395
298.15 K, x1 = 0.5976 | 754.22 | 1.295
298.15 K, x1 = 0.6984 | 748.78 | 1.214
298.15 K, x1 = 0.801 | 744.05 | 1.153
298.15 K, x1 = 0.8822 | 740.67 | 1.08
298.15 K, x1 = 1 | 736.64 | 1.062
303.15 K, x1 = 0.0999 | 793.4 | 2.428
303.15 K, x1 = 0.2 | 781.78 | 1.995
303.15 K, x1 = 0.3026 | 771.75 | 1.656
303.15 K, x1 = 0.4001 | 763.6 | 1.428
303.15 K, x1 = 0.5022 | 756.32 | 1.283
303.15 K, x1 = 0.5976 | 750.42 | 1.202
303.15 K, x1 = 0.6984 | 745 | 1.095
303.15 K, x1 = 0.801 | 740.28 | 1.026
303.15 K, x1 = 0.8822 | 736.92 | 0.999
303.15 K, x1 = 1 | 732.93 | 0.982
308.15 K, x1 = 0.0999 | 789.65 | 2.136
308.15 K, x1 = 0.2 | 777.98 | 1.768
308.15 K, x1 = 0.3026 | 767.93 | 1.481
308.15 K, x1 = 0.4001 | 759.77 | 1.29
308.15 K, x1 = 0.5022 | 752.5 | 1.153
308.15 K, x1 = 0.5976 | 746.6 | 1.062
308.15 K, x1 = 0.6984 | 741.2 | 0.998
308.15 K, x1 = 0.801 | 736.49 | 0.951
308.15 K, x1 = 0.8822 | 733.14 | 0.922
308.15 K, x1 = 1 | 729.23 | 0.91
313.15 K, x1 = 0.0999 | 785.86 | 1.887
313.15 K, x1 = 0.2 | 774.15 | 1.572
313.15 K, x1 = 0.3026 | 764.08 | 1.33
313.15 K, x1 = 0.4001 | 755.91 | 1.17
313.15 K, x1 = 0.5022 | 748.64 | 1.058
313.15 K, x1 = 0.5976 | 742.76 | 0.976
313.15 K, x1 = 0.6984 | 737.36 | 0.924
313.15 K, x1 = 0.801 | 732.67 | 0.881
313.15 K, x1 = 0.8822 | 729.34 | 0.859
313.15 K, x1 = 1 | 725.53 | 0.847
318.15 K, x1 = 0.0999 | 782.03 | 1.675
318.15 K, x1 = 0.2 | 770.28 | 1.409
318.15 K, x1 = 0.3026 | 760.19 | 1.2
318.15 K, x1 = 0.4001 | 752.02 | 1.065
318.15 K, x1 = 0.5022 | 744.75 | 0.972
318.15 K, x1 = 0.5976 | 738.88 | 0.902
318.15 K, x1 = 0.6984 | 733.51 | 0.856
318.15 K, x1 = 0.801 | 728.83 | 0.819
318.15 K, x1 = 0.8822 | 725.53 | 0.801
318.15 K, x1 = 1 | 721.82 | 0.79
323.15 K, x1 = 0.0999 | – | 1.468
323.15 K, x1 = 0.2 | – | 1.266
323.15 K, x1 = 0.3026 | – | 1.087
323.15 K, x1 = 0.4001 | – | 0.974
323.15 K, x1 = 0.5022 | – | 0.896
323.15 K, x1 = 0.5976 | – | 0.836
323.15 K, x1 = 0.6984 | – | 0.796
323.15 K, x1 = 0.801 | – | 0.764
323.15 K, x1 = 0.8822 | – | 0.748
323.15 K, x1 = 1 | – | 0.74
